What was measured:
[1] = biological target: Glycogen synthase kinase-3 beta (Homo sapiens) (UniProt P49841); experiment: Inhibition of human full length GSK-3 beta expressed in baculovirus assessed as substrate phosphorylation using fluorescence-labelled peptides as substrate at 8 uM after 90 mins by microfluidic peptide phosphorylation assay
[2] = biological target: MAP kinase-activated protein kinase 2 (Homo sapiens) (UniProt P49137); experiment: Inhibition of human full length MAPKAPK2 expressed in baculovirus assessed as substrate phosphorylation using fluorescence-labelled peptides as substrate at 0.2 uM after 90 mins by microfluidic peptide phosphorylation assay
[3] = biological target: T1, cGMP-dependent protein kinase 1 (Homo sapiens) (UniProt Q13976); experiment: Inhibition of human full length PKG-1a expressed in baculovirus assessed as substrate phosphorylation using fluorescence-labelled peptides as substrate at 2 uM after 90 mins by microfluidic peptide phosphorylation assay
T1 sequence (whole entry): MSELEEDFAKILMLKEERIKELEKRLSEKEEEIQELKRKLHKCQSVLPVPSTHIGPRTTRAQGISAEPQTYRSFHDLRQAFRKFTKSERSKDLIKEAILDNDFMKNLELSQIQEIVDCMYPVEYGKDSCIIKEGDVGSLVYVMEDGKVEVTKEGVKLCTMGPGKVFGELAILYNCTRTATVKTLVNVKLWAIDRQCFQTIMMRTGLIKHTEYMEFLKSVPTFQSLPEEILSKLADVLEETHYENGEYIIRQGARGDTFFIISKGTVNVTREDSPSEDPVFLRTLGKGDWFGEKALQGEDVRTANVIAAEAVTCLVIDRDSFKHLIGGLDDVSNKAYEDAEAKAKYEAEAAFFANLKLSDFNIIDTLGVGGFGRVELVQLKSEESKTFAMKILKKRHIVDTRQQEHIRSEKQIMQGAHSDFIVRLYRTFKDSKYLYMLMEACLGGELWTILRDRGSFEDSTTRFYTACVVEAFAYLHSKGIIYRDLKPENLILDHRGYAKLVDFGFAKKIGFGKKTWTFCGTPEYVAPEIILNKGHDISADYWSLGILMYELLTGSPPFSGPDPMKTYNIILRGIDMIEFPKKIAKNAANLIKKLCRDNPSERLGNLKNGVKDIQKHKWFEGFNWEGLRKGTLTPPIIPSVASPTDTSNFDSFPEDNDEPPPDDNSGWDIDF

[4] = biological target: Calcium/calmodulin-dependent protein kinase type II subunit gamma (Homo sapiens) (UniProt Q13555); experiment: Inhibition of human CAMK2 gamma catalytic domain expressed in baculovirus assessed as substrate phosphorylation using fluorescence-labelled peptides as substrate at 9 uM after 90 mins by microfluidic peptide phosphorylation assay
[5] = biological target: Tyrosine-protein kinase Lyn (Homo sapiens) (UniProt P07948); experiment: Inhibition of human full length LYN expressed in baculovirus assessed as substrate phosphorylation using fluorescence-labelled peptides as substrate at 9 uM after 90 mins by microfluidic peptide phosphorylation assay
[6] = biological target: Ribosomal protein S6 kinase alpha-3 (Homo sapiens) (UniProt P51812); experiment: Inhibition of human full length RSK2 expressed in baculovirus assessed as substrate phosphorylation using fluorescence-labelled peptides as substrate at 9 uM after 90 mins by microfluidic peptide phosphorylation assay
[7] = species: Homo sapiens; experiment: Inhibition of human P70S6K catalytic domain expressed in baculovirus assessed as substrate phosphorylation using fluorescence-labelled peptides as substrate at 9 uM after 90 mins by microfluidic peptide phosphorylation assay
[8] = biological target: Hepatocyte growth factor receptor (Homo sapiens) (UniProt P08581); details: 0.1 uM
Description: Inhibition of human MET cytoplasmic domain expressed in baculovirus assessed as substrate phosphorylation using fluorescence-labelled peptides as substrate at 0.1 uM after 90 mins by microfluidic peptide phosphorylation assay

[9] = biological target: T2, Serine/threonine-protein kinase 3 (Homo sapiens) (UniProt Q13188); experiment: Inhibition of human full length MST2 expressed in baculovirus assessed as substrate phosphorylation using fluorescence-labelled peptides as substrate at 95 uM after 90 mins by microfluidic peptide phosphorylation assay
T2 sequence (whole entry): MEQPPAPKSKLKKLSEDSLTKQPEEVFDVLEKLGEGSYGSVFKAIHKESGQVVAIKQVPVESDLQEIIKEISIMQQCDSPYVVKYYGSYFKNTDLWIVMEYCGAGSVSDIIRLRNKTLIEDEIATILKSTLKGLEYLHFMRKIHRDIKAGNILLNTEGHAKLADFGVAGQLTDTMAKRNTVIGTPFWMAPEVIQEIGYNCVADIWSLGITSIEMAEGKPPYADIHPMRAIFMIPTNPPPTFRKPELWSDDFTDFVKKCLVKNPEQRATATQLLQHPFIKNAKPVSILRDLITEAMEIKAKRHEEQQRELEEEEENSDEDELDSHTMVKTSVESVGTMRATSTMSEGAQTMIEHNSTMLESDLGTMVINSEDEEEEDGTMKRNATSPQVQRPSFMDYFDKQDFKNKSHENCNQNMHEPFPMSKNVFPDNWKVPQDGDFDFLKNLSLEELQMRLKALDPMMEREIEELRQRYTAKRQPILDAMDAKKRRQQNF

[10] = biological target: Tyrosine-protein kinase Fyn (Homo sapiens) (UniProt P06241); experiment: Inhibition of human full length FYN expressed in baculovirus assessed as substrate phosphorylation using fluorescence-labelled peptides as substrate at 1000 uM after 90 mins by microfluidic peptide phosphorylation assay
[11] = tested on: Tyrosine-protein kinase ABL1 (Homo sapiens), P00519 [H396P]; experiment: Inhibition of human truncated ABL H396P mutant expressed in baculovirus assessed as substrate phosphorylation using fluorescence-labelled peptides as substrate at 1000 uM after 90 mins by microfluidic peptide phosphorylation assay
[12] = biological target: Ribosomal protein S6 kinase alpha-5 (Homo sapiens) (UniProt O75582); experiment: Inhibition of human full length MSK1 expressed in baculovirus assessed as substrate phosphorylation using fluorescence-labelled peptides as substrate at 70 uM after 90 mins by microfluidic peptide phosphorylation assay
[13] = biological target: T3, Serine/threonine-protein kinase Sgk2 (Homo sapiens) (UniProt Q9HBY8); experiment: Inhibition of human full length SGK2 expressed in baculovirus assessed as substrate phosphorylation using fluorescence-labelled peptides as substrate at 70 uM after 90 mins by microfluidic peptide phosphorylation assay
T3 sequence (whole entry): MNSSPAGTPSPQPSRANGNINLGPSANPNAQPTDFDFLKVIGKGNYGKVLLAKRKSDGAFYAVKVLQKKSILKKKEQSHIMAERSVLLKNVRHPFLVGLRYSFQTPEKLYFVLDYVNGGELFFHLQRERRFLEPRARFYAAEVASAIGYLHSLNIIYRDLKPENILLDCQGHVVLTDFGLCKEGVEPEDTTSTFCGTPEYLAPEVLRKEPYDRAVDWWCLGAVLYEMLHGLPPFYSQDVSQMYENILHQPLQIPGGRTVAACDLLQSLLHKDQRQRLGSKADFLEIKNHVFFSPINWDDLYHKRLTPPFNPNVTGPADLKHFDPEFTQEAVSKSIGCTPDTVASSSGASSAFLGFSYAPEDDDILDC

[14] = biological target: Rho-associated protein kinase 2 (Homo sapiens) (UniProt O75116); experiment: Inhibition of human ROCK2 catalytic domain expressed in baculovirus assessed as substrate phosphorylation using fluorescence-labelled peptides as substrate at 420 uM after 90 mins by microfluidic peptide phosphorylation assay

Sequence of Ribosomal protein S6 kinase alpha-3 (Homo sapiens) (P51812 whole entry, the tested form may be a part): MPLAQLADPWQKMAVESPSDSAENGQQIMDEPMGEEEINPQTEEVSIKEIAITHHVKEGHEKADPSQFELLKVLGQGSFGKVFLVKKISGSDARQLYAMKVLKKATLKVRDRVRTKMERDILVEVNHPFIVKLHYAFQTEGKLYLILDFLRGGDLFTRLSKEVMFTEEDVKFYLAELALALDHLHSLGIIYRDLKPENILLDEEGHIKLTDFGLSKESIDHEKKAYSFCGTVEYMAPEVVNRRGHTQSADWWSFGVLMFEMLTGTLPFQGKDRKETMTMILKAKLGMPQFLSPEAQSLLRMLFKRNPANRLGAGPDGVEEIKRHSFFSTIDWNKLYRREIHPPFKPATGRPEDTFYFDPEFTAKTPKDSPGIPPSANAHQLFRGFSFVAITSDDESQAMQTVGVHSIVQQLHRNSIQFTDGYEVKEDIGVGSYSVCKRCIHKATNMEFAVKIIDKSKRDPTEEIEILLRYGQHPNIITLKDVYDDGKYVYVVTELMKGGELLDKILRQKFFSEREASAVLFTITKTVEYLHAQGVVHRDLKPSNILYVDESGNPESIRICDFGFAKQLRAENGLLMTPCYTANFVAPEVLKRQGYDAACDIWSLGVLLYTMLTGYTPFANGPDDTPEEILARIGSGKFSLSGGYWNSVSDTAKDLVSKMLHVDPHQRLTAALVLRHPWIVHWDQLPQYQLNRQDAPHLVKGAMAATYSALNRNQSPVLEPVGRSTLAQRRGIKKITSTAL
Sequence of Glycogen synthase kinase-3 beta (Homo sapiens) (P49841 whole entry, looked up): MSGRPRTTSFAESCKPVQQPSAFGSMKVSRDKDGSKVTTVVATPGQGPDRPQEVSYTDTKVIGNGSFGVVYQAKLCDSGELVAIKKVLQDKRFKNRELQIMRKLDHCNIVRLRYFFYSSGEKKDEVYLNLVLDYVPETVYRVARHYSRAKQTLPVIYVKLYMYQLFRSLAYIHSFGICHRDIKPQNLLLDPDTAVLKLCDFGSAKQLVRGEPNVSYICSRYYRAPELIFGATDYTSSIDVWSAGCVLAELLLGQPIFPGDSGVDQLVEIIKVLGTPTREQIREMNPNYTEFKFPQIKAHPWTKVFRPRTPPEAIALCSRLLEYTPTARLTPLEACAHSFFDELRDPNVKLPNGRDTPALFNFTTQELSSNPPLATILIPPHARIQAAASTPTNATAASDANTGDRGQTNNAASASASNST
Sequence of Hepatocyte growth factor receptor (Homo sapiens) (P08581 whole entry): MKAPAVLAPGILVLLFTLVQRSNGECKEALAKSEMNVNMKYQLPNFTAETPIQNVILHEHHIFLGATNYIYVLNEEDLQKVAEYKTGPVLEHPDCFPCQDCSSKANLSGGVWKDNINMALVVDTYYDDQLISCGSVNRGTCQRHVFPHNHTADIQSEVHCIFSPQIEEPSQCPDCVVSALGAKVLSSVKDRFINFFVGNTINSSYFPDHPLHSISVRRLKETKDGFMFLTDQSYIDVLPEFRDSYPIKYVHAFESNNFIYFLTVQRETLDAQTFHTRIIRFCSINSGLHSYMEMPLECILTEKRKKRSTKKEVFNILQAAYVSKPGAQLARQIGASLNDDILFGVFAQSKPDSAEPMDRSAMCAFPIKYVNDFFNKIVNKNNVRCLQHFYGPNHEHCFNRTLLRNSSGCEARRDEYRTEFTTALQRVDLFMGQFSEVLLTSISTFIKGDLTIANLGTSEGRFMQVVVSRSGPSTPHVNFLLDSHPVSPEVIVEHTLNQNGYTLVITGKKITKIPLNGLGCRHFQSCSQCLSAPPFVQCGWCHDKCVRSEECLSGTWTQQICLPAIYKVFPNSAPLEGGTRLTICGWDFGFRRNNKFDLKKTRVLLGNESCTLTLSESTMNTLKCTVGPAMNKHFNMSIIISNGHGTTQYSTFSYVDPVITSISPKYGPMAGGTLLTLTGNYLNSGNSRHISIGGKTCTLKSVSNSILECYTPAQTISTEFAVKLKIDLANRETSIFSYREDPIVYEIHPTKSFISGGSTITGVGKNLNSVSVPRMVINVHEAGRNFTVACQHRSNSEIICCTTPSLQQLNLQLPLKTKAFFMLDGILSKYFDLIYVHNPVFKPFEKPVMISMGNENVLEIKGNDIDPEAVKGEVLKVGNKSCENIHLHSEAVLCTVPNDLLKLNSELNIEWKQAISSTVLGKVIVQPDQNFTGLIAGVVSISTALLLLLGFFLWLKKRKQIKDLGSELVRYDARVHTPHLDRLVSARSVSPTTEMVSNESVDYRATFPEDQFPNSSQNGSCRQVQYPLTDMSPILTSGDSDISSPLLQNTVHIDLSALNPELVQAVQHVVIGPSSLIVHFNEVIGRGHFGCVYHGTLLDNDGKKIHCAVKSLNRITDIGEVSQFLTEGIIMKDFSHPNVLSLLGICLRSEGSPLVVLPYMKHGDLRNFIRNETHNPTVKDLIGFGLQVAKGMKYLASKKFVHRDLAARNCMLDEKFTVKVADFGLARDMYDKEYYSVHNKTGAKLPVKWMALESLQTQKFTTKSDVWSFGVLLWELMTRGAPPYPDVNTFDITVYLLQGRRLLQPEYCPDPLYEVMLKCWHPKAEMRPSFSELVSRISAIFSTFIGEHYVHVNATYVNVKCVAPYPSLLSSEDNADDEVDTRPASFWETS
Sequence of Ribosomal protein S6 kinase alpha-5 (Homo sapiens) (O75582 whole entry, looked up): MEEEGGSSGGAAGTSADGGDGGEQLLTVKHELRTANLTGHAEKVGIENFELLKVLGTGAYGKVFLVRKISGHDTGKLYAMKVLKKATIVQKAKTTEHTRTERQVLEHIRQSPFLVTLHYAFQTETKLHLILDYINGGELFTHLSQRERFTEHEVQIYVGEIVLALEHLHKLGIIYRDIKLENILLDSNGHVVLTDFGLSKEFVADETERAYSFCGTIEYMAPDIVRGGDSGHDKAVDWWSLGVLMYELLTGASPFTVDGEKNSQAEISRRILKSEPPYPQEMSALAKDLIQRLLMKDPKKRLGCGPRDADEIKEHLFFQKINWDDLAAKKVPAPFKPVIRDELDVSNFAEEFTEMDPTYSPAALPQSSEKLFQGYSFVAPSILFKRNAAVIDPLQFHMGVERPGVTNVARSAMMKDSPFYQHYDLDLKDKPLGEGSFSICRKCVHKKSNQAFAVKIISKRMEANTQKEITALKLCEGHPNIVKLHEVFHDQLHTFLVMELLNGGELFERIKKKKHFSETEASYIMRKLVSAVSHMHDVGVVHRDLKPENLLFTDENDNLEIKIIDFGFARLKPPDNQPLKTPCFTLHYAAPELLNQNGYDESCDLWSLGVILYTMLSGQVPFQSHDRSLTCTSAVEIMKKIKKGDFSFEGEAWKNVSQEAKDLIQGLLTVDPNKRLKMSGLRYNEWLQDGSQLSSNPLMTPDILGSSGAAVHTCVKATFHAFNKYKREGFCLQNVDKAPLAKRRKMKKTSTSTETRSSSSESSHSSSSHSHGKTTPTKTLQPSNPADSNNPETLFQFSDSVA
Sequence of Calcium/calmodulin-dependent protein kinase type II subunit gamma (Homo sapiens) (Q13555 whole entry, the tested form may be a part): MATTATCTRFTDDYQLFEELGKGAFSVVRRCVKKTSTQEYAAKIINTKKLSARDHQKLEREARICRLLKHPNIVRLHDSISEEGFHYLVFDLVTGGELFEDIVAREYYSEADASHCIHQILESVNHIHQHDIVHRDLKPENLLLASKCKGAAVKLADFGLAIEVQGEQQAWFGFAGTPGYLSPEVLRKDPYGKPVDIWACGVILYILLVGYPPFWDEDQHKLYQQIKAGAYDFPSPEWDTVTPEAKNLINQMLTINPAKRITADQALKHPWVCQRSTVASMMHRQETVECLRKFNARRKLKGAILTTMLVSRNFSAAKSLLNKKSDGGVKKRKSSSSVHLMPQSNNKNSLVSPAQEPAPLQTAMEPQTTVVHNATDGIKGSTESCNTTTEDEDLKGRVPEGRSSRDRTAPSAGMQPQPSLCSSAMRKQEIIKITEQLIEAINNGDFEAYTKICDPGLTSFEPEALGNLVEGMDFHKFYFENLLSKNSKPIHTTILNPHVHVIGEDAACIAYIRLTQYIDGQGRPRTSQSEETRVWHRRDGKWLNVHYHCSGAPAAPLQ
Sequence of MAP kinase-activated protein kinase 2 (Homo sapiens) (P49137 whole entry, looked up): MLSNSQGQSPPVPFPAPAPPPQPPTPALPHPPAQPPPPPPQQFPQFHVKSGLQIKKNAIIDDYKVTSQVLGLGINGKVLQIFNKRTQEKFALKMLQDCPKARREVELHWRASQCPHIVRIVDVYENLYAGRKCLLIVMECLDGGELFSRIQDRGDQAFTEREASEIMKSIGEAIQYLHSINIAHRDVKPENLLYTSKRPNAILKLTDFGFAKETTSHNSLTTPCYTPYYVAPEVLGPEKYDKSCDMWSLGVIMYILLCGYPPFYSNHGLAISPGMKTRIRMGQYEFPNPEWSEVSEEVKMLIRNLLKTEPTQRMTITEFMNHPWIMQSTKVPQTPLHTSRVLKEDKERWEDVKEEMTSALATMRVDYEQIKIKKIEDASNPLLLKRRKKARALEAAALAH
Sequence of Tyrosine-protein kinase Fyn (Homo sapiens) (P06241 2-537 limits assumed): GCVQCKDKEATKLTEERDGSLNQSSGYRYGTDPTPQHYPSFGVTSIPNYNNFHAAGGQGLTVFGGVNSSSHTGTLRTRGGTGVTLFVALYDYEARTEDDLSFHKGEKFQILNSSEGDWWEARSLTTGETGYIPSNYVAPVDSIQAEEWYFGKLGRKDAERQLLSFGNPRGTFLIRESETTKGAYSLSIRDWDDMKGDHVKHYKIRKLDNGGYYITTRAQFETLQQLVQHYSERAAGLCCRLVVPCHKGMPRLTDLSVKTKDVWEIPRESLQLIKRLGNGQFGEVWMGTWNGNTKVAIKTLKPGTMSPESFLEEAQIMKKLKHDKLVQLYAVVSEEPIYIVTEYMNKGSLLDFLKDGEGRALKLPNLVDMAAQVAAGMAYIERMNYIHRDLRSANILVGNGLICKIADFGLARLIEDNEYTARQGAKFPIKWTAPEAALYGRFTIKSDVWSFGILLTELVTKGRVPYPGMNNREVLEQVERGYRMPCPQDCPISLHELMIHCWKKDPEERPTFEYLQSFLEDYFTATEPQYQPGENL

NCC1CCN(c2ncnc3[nH]ccc23)CC1
inhibition [1]: 0%

Clc1ccc(C2(c3ccc(-c4ncnc5[nH]cnc45)cc3)CCNCC2)cc1
inhibition [2]: 10.5%

NC1CCN(c2ncnc3[nH]ccc23)CC1
inhibition [3]: 10%

NCC1CN(c2ncnc3[nH]c4cnccc4c23)CCO1 (centres undefined)
inhibition [4]: 24% | inhibition [5]: 42% | inhibition [6]: 95.5% | inhibition [7]: 14.5%

C[C@H](CN(C)C)Oc1nc(Nc2cc3cccc(Cl)c3cn2)cnc1C#N
inhibition [8]: 0%

NCCc1ccc(-c2ncnc3[nH]cnc23)cc1
inhibition [9]: 86.5%

c1cnc2[nH]ccc2c1
inhibition [10]: 24% | inhibition [11]: 44.5%

CNCc1ccc(-c2ncnc3[nH]cnc23)cc1
inhibition [12]: 72.5% | inhibition [13]: 74%

c1nc(N2CCOCC2)c2nc[nH]c2n1
inhibition [14]: 101%

— ChEMBL document CHEMBL3132769, “Fragment growing to retain or alter the selectivity of anchored kinase hinge-binding fragments” (Medchemcomm, 2014)
